The text below walks through data of patent EP4364726A1, “METHOD FOR TREATING A CANCER AND/OR CANCER METASTASIS” (Nano Targeting & Therapy Biopharma Inc., priority 2022, dated 2024).

Data set [1] relates to luciferase-expressing HCT-116 cells. Put plainly: Orthotopic colorectal cancer metastasis model (cells injected into cecum wall). It is filed as in vivo, mice. Particulars: orthotopic HCT-116-luc, 40 mg/kg twice per week, 8 administrations.
Experimental: 2×10^6 luciferase-expressing HCT-116 cells were directly injected into the wall of the cecum with surgery to establish the orthotopic colorectal cancer metastasis model, this model spontaneously produces highly metastatic tumors in adjacent intestinal tissues, peritoneum, and distance metastasis (spleen, kidney, liver, and diaphragm). Tumor-bearing mice received IRI and IRI@NTT2_186k at dose levels of 40 mg/kg twice per week for a total of 8 administrations. The tumor growth and metastasis were observed by the IVIS system once a week and body weight was observed over the study period. To assess overall survival, animals were monitored up to the point of spontaneous death or approaching moribund status.
For data set [2] the following is noted: cited from earlier work.
In data set [3] the test system is chicken embryo chorioallantoic membrane (CAM) tumor model. Put plainly: Chorioallantoic membrane (CAM) analysis for angiogenesis. It counts as in vivo. Particulars: administered on day 12, observed days 14 and 16. On the procedure: To evaluate the effect of MSNs on tumor angiogenesis, chicken embryo chorioallantoic membrane (CAM) tumor model was used. The fertilized eggs were incubated in the incubator for 10 days, then a small window was opened in the eggshell and the cancer cells were implanted on the CAM membrane near the aorta. MSN or Doxorubicin (DOX) was administered on day 12 when the tumor was formed and the angiogenesis near the tumor was observed on days 14 and 16.

As to `CCc1c2c(nc3ccc(OC(=O)N4CCC(N5CCCCC5)CC4)cc13)-c1cc3c(c(=O)n1C2)COC(=O)[C@]3(O)CC` [IRI, irinotecan], in data set [1], the “tumor course once treatment was discontinued” value is “tumor relapse and tumor metastases were observed”; the tumor growth rate result is given as “slower tumor growth rate compared to the control group”. Moreover, the “inhibition of primary tumor growth and metastases” value in data set [1] (IVIS) was “inefficient inhibition of tumor growth and metastases”. In addition, the pka entry in data set [2] is listed as “about 10.9”.

In the case of `COc1cccc2c1C(=O)c1c(O)c3c(c(O)c1C2=O)C[C@@](O)(C(=O)CO)C[C@@H]3O[C@H]1C[C@H](N)[C@H](O)[C@H](C)O1` [DOX, Doxorubicin], in data set [3], the “blood vessels near the tumor” value is “blood vessels exhibited disintegration and decreased density”.
